Among the data in patent US20070259916A1, “mGluR5 modulators II” (AstraZeneca AB, priority 2006, published 2007) are IC50 and Kp values, retold here.

The target of data set [1] is T1, human mGluR5d (Homo sapiens, UniProt P41594).
T1 construct: expressed in transfected cells
Put plainly: FLIPR assay, functional assessment of mGluR5 antagonism (intracellular calcium mobilization). The conditions noted are these: cells expressing human mGluR5d; read-out: FLIPR hmGluR5d. Format: cell-based. The text has this:
Functional Assessment of mGluR5 Antagonism in Cell Lines Expressing mGluR5D
The properties of the compounds of the invention can be analyzed using standard assays for pharmacological activity. Examples of glutamate receptor assays are well known in the art as described in for example Aramori et al., Neuron 8:757 (1992), Tanabe et al., Neuron 8:169 (1992), Miller et al., J. Neuroscience 15: 6103 (1995), Balazs, et al., J. Neurochemistry 69:151 (1997). The methodology described in these publications is incorporated herein by reference. Conveniently, the compounds of the invention can be studied by means of an assay (FLIPR) that measures the mobilization of intracellular calcium, [Ca^2+] in cells expressing mGluR5 or another assay (IP3) that measures inositol phosphate turnover.
Cells expressing human mGluR5d as described in WO97/05252 are seeded at a density of 100,000 cells per well on collagen coated clear bottom 96-well plates with black sides and experiments are done 24 h following seeding. […] The fluorescence signal is sampled 50 times at 1 second intervals followed by 3 samples at 5 second intervals immediately after each of the two additions. Responses are measured as the difference between the peak height of the response to agonist, less the background fluorescence within the sample period. […]
(Calcium flux is commonly read through the fluorescence of an indicator in the cells.)

Data set [2] can be described thus: Determination of brain to plasma ratio in rat. Format: in vivo. The conditions noted are these: brain and plasma, female Sprague Dawley rats, drug in brain over drug in plasma, read-out: Brain/Plasma Ratio of compound in Rat. As for the experimental part: Brain to plasma ratios are estimated in female Sprague Dawley rats. The compound is dissolved in water or another appropriate vehicle. For determination of brain to plasma ratio the compound is administrated as a subcutaneous, or an intravenous bolus injection, or an intravenous infusion, or an oral administration. At a predetermined time point after the administration a blood sample is taken with cardiac puncture. The rat is terminated by cutting the heart open, and the brain is immediately retained. The blood samples are collected in heparinized tubes and centrifuged within 30 minutes, in order to separate the plasma from the blood cells. The plasma is transferred to 96-well plates and stored at −20° C. until analysis. The brains are divided in half, and each half is placed in a pre-tarred tube and stored at −20° C. until analysis. Prior to the analysis, the brain samples are thawed and 3 ml/g brain tissue of distilled water is added to the tubes. The brain samples are sonicated in an ice bath until the samples are homogenized. Both brain and plasma samples are precipitated with acetonitrile. After centrifugation, the supernatant is diluted with 0.2% formic acid. […] After reconstitution of the residuals the samples are ready for injection onto the HPLC column.

T1 sequence (P41594 21-942 isoform P41594-3 limits assumed): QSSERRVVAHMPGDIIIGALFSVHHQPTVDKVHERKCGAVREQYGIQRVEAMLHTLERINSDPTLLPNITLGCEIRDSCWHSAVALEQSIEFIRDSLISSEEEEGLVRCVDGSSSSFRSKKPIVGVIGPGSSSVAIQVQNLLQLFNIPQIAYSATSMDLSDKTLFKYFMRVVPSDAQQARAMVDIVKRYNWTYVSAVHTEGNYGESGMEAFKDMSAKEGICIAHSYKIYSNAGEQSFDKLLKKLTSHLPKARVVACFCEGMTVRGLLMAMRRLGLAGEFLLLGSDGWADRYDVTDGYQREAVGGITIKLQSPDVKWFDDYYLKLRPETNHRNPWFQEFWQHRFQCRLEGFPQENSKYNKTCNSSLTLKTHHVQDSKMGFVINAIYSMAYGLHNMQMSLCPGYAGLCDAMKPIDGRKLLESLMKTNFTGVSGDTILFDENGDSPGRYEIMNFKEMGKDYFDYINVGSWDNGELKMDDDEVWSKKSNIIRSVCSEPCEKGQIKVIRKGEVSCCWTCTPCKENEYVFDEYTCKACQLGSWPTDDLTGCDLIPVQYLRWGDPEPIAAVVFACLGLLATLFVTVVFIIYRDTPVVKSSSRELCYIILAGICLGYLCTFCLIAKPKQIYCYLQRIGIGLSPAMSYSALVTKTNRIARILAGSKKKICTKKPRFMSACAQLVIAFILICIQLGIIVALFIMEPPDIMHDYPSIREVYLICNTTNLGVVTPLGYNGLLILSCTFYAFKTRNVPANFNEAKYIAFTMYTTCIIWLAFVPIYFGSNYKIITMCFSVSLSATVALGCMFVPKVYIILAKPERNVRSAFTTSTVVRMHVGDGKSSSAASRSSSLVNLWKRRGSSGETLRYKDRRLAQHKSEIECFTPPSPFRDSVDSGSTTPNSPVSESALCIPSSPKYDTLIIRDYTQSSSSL

With `COc1cc(-c2nnc(N3CCCCC3c3nnn(-c4cccc(C#N)c4)n3)n2C)ccn1` (stereo not shown) [Example 19.11, 3-(5-{1-[5-(2-Methoxy-pyridin-4-yl)-4-methyl-4H-[1,2,4]triazol-3-yl]-piperidin-2-yl}-tetrazol-2-yl)-benzonitrile], in data set [1], the IC50 was found to be 110 nM. The Kp in data set [2] worked out at 0.06.
On the same counts, the results for `Cn1c(-c2cccnc2)nnc1N1CCCC[C@H]1c1nnn(-c2cccc(Cl)c2)n1` [Example 20.2, 3-(5-{(S)-2-[2-(3-Chloro-phenyl)-2H-tetrazol-5-yl]-piperidin-1-yl}-4-methyl-4H-[1,2,4]triazol-3-yl)-pyridine] are 193 nM and 0.085.
